Data taken from the CheMixHub viscosity set.

Assay: xn = mol fraction of the nth substance listed

CCCCOCCO + CCCCCCC
viscosity [mPa·s], 101 kPa
Conditions	303.15 K	313.15 K
x1 = 0.0365	0.407	0.364
x1 = 0.1077	0.484	0.426
x1 = 0.2126	0.626	0.534
x1 = 0.316	0.799	0.661
x1 = 0.417	0.987	0.797
x1 = 0.5114	1.177	0.941
x1 = 0.6155	1.411	1.116
x1 = 0.7469	1.741	1.359
x1 = 0.845	2.011	1.55
x1 = 0.9057	2.162	1.654
x1 = 0.9663	2.306	1.784

CCOC(=O)CCl + CCCCCCC
viscosity [mPa·s], 101.33 kPa
Conditions	x1 = 0.1037	x1 = 0.203	x1 = 0.3009	x1 = 0.4005	x1 = 0.4992	x1 = 0.6048	x1 = 0.705	x1 = 0.8022	x1 = 0.8954
298.15 K	0.419	0.45	0.484	0.53	0.585	0.651	0.726	0.817	0.93
303.15 K	0.398	0.424	0.457	0.498	0.545	0.608	0.676	0.761	0.859
308.15 K	0.378	0.402	0.432	0.469	0.522	0.569	0.634	0.71	0.8

CCOC(=O)CCl + CCCCCCCC
viscosity [mPa·s], 101.33 kPa
Conditions	x1 = 0.1027	x1 = 0.2003	x1 = 0.3048	x1 = 0.4033	x1 = 0.5064	x1 = 0.6021	x1 = 0.7042	x1 = 0.8031	x1 = 0.9017
298.15 K	0.524	0.553	0.586	0.618	0.666	0.718	0.782	0.855	0.953
303.15 K	0.493	0.518	0.551	0.577	0.621	0.669	0.723	0.796	0.884
308.15 K	0.465	0.487	0.519	0.541	0.584	0.624	0.676	0.741	0.82

COC(=O)c1ccccc1 + CCCCCCCC
101 kPa
Conditions	viscosity [mPa·s]
298.15 K, x2 = 0.0356	1.698
298.15 K, x2 = 0.0736	1.572
298.15 K, x2 = 0.1081	1.474
298.15 K, x2 = 0.1549	1.349
298.15 K, x2 = 0.1926	1.265
298.15 K, x2 = 0.2388	1.169
298.15 K, x2 = 0.3669	0.961
298.15 K, x2 = 0.4093	0.905
298.15 K, x2 = 0.4513	0.855
298.15 K, x2 = 0.5041	0.796
298.15 K, x2 = 0.55	0.754
298.15 K, x2 = 0.6034	0.707
298.15 K, x2 = 0.6567	0.669
298.15 K, x2 = 0.7105	0.634
298.15 K, x2 = 0.7575	0.606
298.15 K, x2 = 0.8645	0.558
298.15 K, x2 = 0.9387	0.533
308.15 K, x2 = 0.0548	1.358
308.15 K, x2 = 0.0935	1.263
308.15 K, x2 = 0.1329	1.177
308.15 K, x2 = 0.1743	1.099
308.15 K, x2 = 0.216	1.026
308.15 K, x2 = 0.2531	0.967
308.15 K, x2 = 0.2946	0.909
308.15 K, x2 = 0.341	0.852
308.15 K, x2 = 0.3823	0.806
308.15 K, x2 = 0.4247	0.763
308.15 K, x2 = 0.4738	0.719
308.15 K, x2 = 0.5182	0.685
308.15 K, x2 = 0.5728	0.645
308.15 K, x2 = 0.6245	0.612
308.15 K, x2 = 0.6742	0.583
308.15 K, x2 = 0.7274	0.558
308.15 K, x2 = 0.774	0.536
308.15 K, x2 = 0.8351	0.512
308.15 K, x2 = 0.9135	0.486
318.15 K, x2 = 0.0668	1.147
318.15 K, x2 = 0.0719	1.139
318.15 K, x2 = 0.112	1.068
318.15 K, x2 = 0.1404	1.022
318.15 K, x2 = 0.1952	0.94
318.15 K, x2 = 0.2418	0.876
318.15 K, x2 = 0.2828	0.823
318.15 K, x2 = 0.3337	0.764
318.15 K, x2 = 0.3678	0.729
318.15 K, x2 = 0.4175	0.682
318.15 K, x2 = 0.463	0.644
318.15 K, x2 = 0.5158	0.605
318.15 K, x2 = 0.5624	0.576
318.15 K, x2 = 0.6149	0.548
318.15 K, x2 = 0.6664	0.525
318.15 K, x2 = 0.7241	0.502
318.15 K, x2 = 0.7767	0.485
318.15 K, x2 = 0.8373	0.468
318.15 K, x2 = 0.8921	0.453

c1ccc2c(c1)CCCC2 + CCCCCCCC
viscosity [mPa·s], 101 kPa
Conditions	x2 = 0.0997	x2 = 0.2011	x2 = 0.3013	x2 = 0.3997	x2 = 0.5003	x2 = 0.5995	x2 = 0.7001	x2 = 0.8014	x2 = 0.8955
293.15 K	1.831	1.527	1.303	1.143	0.976	0.85	0.747	0.673	0.612
298.15 K	1.675	1.405	1.207	1.063	0.918	0.811	0.702	0.635	0.58
303.15 K	1.533	1.294	1.118	0.989	0.857	0.762	0.662	0.599	0.55
313.15 K	1.308	1.117	0.971	0.866	0.757	0.675	0.592	0.539	0.496

CCOC(=O)CCl + CCCCCCCCC
viscosity [mPa·s], 101.33 kPa
Conditions	x1 = 0.1004	x1 = 0.2033	x1 = 0.3013	x1 = 0.4018	x1 = 0.5019	x1 = 0.6012	x1 = 0.7037	x1 = 0.8037	x1 = 0.9012
298.15 K	0.66	0.665	0.686	0.716	0.755	0.799	0.849	0.907	0.982
303.15 K	0.62	0.623	0.644	0.67	0.705	0.743	0.792	0.842	0.912
308.15 K	0.58	0.583	0.602	0.624	0.654	0.688	0.735	0.778	0.843

c1ccc2c(c1)CCCC2 + CCCCCCCCC
viscosity [mPa·s], 101 kPa
Conditions	x2 = 0.1063	x2 = 0.2018	x2 = 0.3066	x2 = 0.4057	x2 = 0.5014	x2 = 0.6005	x2 = 0.704	x2 = 0.7942	x2 = 0.8898
293.15 K	1.814	1.585	1.352	1.198	1.082	0.976	0.89	0.826	0.784
298.15 K	1.653	1.45	1.254	1.111	1.006	0.908	0.833	0.775	0.735
303.15 K	1.518	1.334	1.151	1.034	0.937	0.848	0.777	0.728	0.69
313.15 K	1.308	1.148	0.997	0.905	0.821	0.749	0.69	0.649	0.615

CCOC(=O)CCl + CCCCCCCCCC
viscosity [mPa·s], 101.33 kPa
Conditions	x1 = 0.0992	x1 = 0.2037	x1 = 0.3031	x1 = 0.4005	x1 = 0.5016	x1 = 0.6027	x1 = 0.7039	x1 = 0.8019	x1 = 0.9008
298.15 K	0.821	0.825	0.828	0.843	0.869	0.897	0.93	0.969	1.024
303.15 K	0.761	0.766	0.767	0.78	0.801	0.827	0.854	0.885	0.946
308.15 K	0.707	0.713	0.719	0.725	0.742	0.765	0.791	0.829	0.872

COC(=O)c1ccccc1 + CCCCCCCCCC
101 kPa
Conditions	viscosity [mPa·s]
298.15 K, x2 = 0.0262	1.743
298.15 K, x2 = 0.0672	1.629
298.15 K, x2 = 0.1282	1.488
298.15 K, x2 = 0.172	1.406
298.15 K, x2 = 0.2455	1.29
298.15 K, x2 = 0.2831	1.234
298.15 K, x2 = 0.3238	1.184
298.15 K, x2 = 0.3645	1.141
298.15 K, x2 = 0.4095	1.095
298.15 K, x2 = 0.458	1.05
298.15 K, x2 = 0.5093	1.012
298.15 K, x2 = 0.563	0.972
298.15 K, x2 = 0.6077	0.946
298.15 K, x2 = 0.6694	0.915
298.15 K, x2 = 0.7276	0.891
298.15 K, x2 = 0.8044	0.868
298.15 K, x2 = 0.8571	0.855
298.15 K, x2 = 0.9293	0.845
308.15 K, x2 = 0.0467	1.4
308.15 K, x2 = 0.0764	1.34
308.15 K, x2 = 0.1148	1.271
308.15 K, x2 = 0.1464	1.219
308.15 K, x2 = 0.1853	1.163
308.15 K, x2 = 0.2147	1.12
308.15 K, x2 = 0.2537	1.076
308.15 K, x2 = 0.2939	1.031
308.15 K, x2 = 0.3391	0.988
308.15 K, x2 = 0.3803	0.956
308.15 K, x2 = 0.429	0.922
308.15 K, x2 = 0.4756	0.894
308.15 K, x2 = 0.5274	0.866
308.15 K, x2 = 0.575	0.841
308.15 K, x2 = 0.6318	0.816
308.15 K, x2 = 0.6926	0.79
308.15 K, x2 = 0.7434	0.775
308.15 K, x2 = 0.8116	0.759
308.15 K, x2 = 0.887	0.747
318.15 K, x2 = 0.0153	1.249
318.15 K, x2 = 0.0485	1.196
318.15 K, x2 = 0.0774	1.151
318.15 K, x2 = 0.113	1.101
318.15 K, x2 = 0.1467	1.058
318.15 K, x2 = 0.1837	1.015
318.15 K, x2 = 0.2171	0.977
318.15 K, x2 = 0.2582	0.936
318.15 K, x2 = 0.2931	0.903
318.15 K, x2 = 0.3395	0.863
318.15 K, x2 = 0.3892	0.826
318.15 K, x2 = 0.4363	0.795
318.15 K, x2 = 0.4972	0.76
318.15 K, x2 = 0.5486	0.734
318.15 K, x2 = 0.6025	0.713
318.15 K, x2 = 0.6669	0.692
318.15 K, x2 = 0.7208	0.678
318.15 K, x2 = 0.7971	0.663
318.15 K, x2 = 0.8627	0.655
